Measured values from patent US20130022635A1, “Expression Modulator For Clock Gene Bmal” (SHISEIDO COMPANY, LTD., priority 2010, published 2013).

Key:
[1] = test system: Period1 gene; assay: Period1 gene expression in cultured skin fibroblastic cells; format: cell-based, human
Method: As the cultured human fibroblastic cells, fibroblastic cells from normal human skin were purchased (Cell Application, Inc.) and used in the experiments. They were inoculated in DMEM medium supplemented with 10% FBS, 20 mM HEPES, Glutamax and antibacterial agents and cultured at 37° C. in 5% CO2. On the 6th day of culture, 50 ng/mL of cortisol or 10 μM of forskolin was added, and the samples were harvested at various times after time 0, which was defined as the time immediately after the addition of cortisol or forskolin. RNA was extracted from the cells with a commercially available RNA extraction kit, and the amounts of expression of the intended genes were measured by RT-PCR technology using commercially available PCR primers (Perfect Real Time Primer, Takara Bio). As for clock genes, amounts of expression of Period (represented by Period1) and Bmal1, which are involved in the core system, were determined. Similarly, the amounts of expression of a housekeeping gene RPLP0 were quantified and used as an internal standard to calculate the relative expression of the intended genes to RPLP0. […]

[2] = test system: Bmal1 gene; assay: Bmal1 gene expression (RT-PCR, relative to RPLP0) in cultured human skin fibroblastic cells; format: cell-based; details: expression at 2 and 16 hours after stimulation
Method: As the cultured human fibroblastic cells, fibroblastic cells from normal human skin were purchased (Cell Application, Inc.) and used in the experiments. They were inoculated in DMEM medium supplemented with 10% FBS, 20 mM HEPES, Glutamax and antibacterial agents and cultured at 37° C. in 5% CO2. On the 6th day of culture, 50 ng/mL of cortisol or 10 μM of forskolin was added, and the samples were harvested at various times after time 0, which was defined as the time immediately after the addition of cortisol or forskolin. RNA was extracted from the cells with a commercially available RNA extraction kit, and the amounts of expression of the intended genes were measured by RT-PCR technology using commercially available PCR primers (Perfect Real Time Primer, Takara Bio). As for clock genes, amounts of expression of Period (represented by Period1) and Bmal1, which are involved in the core system, were determined. Similarly, the amounts of expression of a housekeeping gene RPLP0 were quantified and used as an internal standard to calculate the relative expression of the intended genes to RPLP0. […] Test substances were evaluated for the expression modulating effect on a Bmal gene based on the amount of gene expression at 16 hours after stimulation. […]

Compound | Induction of Period gene expression rhythm or promotion of its expression (in words) [1] | Induction of Bmal1 expression rhythm and increase of Bmal1 gene expression (in words) [2]
C=C1CC/C=C(\C)CC[C@@H]2[C@@H]1CC2(C)C [beta-Caryophyllene] | can induce expression rhythm of a Period gene or promote its expression | 
C[C@]12CCC(=O)C=C1CC[C@@H]1[C@@H]2[C@@H](O)C[C@@]2(C)[C@H]1CC[C@]2(O)C(=O)CO [cortisol] |  | significantly increase amounts of gene expression of Bmal1
